The target in test [1] is Cyclin Dependent kinase 2 (CDK2) (Homo sapiens, UniProt P24941). In words: Assay for inhibition of CDK2 activity. The class given is biochemical. As to conditions: [33P]ATP, read-out: percentage inhibition at 20 μM. The method, then: The inhibition of the kinase activity of Cyclin Dependent kinase 2 (CDK2) is determined by measuring the phosphorylation of its substrate peptide.
The assay is carried out in a final volume of 50 μl.
The incubation buffer as follows:
• 50 mM Hepes/NaOH pH 7.5 • 10 mM MgCl2 • 1 mM DTT 5 μl of the 10-times concentrated inhibitor are added to 25 μl of incubation buffer containing 0.8 U/μL final concentration of the enzyme; 10 μL of incubation buffer containing 0.0025 mg/ml of peptide substrate are then added and, finally, 10 μL of incubation buffer containing 2 mM ATP and radiolabeled ATP, [^33P]ATP (0.25 μCi), are added. The reaction is stopped after incubation for 10 minutes at 37° C. • Results obtained expressed as percentage inhibition at 20 μM • Example 2 97% • Example 27 97% • Example 30 99% 4) Assay for Inhibition of CDK1 Activity

Another test deals with CaCiv1 (Candida albicans, UniProt A0A1D8PH53). In words: Assay for inhibition of CIV-CDK (CIV1) activity. It is filed as biochemical. From the text: 1) Assay for Inhibition of CIV-CDK (CIV1) Activity
a) Preparation of the Reagents

The target of the next test is T1, SRC kinase (Homo sapiens, UniProt P12931).
T1 construct: purchased Upstate Biotechnology 14-117
In words: Assay for inhibition of SRC kinase activity. It is filed as biochemical. As to conditions: fluorescence polarization, read-out: percentage inhibition at 20 μM. The method, then:
2) Assay for Inhibition of SRC Kinase Activity
The inhibition is determined by fluorescence polarization, the […] kinase phosphorylates a peptide detected by adding an anti-phosphopeptide antibody coupled to a fluorescent label.
The assay is carried out in a final volume of 50 μl; all the reagents are prepared in a buffer: • 25 mM HEPES/NaOH pH 7.6 • 5 mM MgCl2 • 2 mM MnCl2 • 50 μM Na2VO4 5 μl of the 10-times concentrated inhibitor are added to 25 μl of enzyme (12 U/ml final concentration), (Upstate Biotechnology ref 14-117). After incubation for 5 minutes at ambient temperature, 10 μl of PolyGluTyr 4/1 (150 ng/ml final concentration) and 10 μl of ATP (5 μM final concentration) are added. The detection is carried out after incubation for 20 minutes at ambient temperature. • Results obtained expressed as percentage inhibition at 20 μM • Example 8 98% • Example 15 99% • Example 20 99% • Example 24 99% • Example 27 95% • Example 30 99% • Example 32 100% • Example 38 95% 3) Assay for Inhibition of CDK2 Activity
(Fluorescence polarisation rises when a labelled molecule tumbles more slowly, as on binding a larger partner.)

For a further test, the target named is JNK3 kinase (Homo sapiens, UniProt P53779). The experiment in a line: Assay for inhibition of JNK3 activity. As to conditions: fluorescence polarization, ATP 6 μM; read-out: IC50s expressed as micromolar. It is filed as biochemical. The procedure:
The inhibition of the kinase activity is determined by fluorescence polarization, the JNK3 kinase phosphorylates a peptide detected by adding an anti-phosphopeptide antibody coupled to a fluorescent label.
The assay is carried out in a final volume of 30 μl; all the reagents are prepared in a buffer: • 50 mM HEPES pH 7.5 • 0.03% triton X100 • 10 mM MgCl2 • 5% Glycerol • 1 mM DTT 10 μl of the 10-times concentrated inhibitor are added to 5 μl of enzyme (40 ng final concentration), and 5 μl of incubation buffer containing 100 ng of substrate and 10 μl of ATP (6 μM final concentration) are added.

Another test concerns Candida glabrata. In words: Minimum inhibitory concentration in liquid medium, micro method (NCCLS M27-A). The class given is cell-based. As to conditions: Nakaseomyces glabratus; at least 80% inhibition of growth, read after 24-48 h at 37° C., RPMI 1640; read-out: MIC Candida glabrata. The method, then: (§1) The assay is carried out in a final volume of 40 μl; all the reagents are prepared in a buffer: • 50 mM HEPES pH 7.5 • 0.03% triton X100 • 10 mM MgCl2 • 5% Glycerol • 1 mM DTT 10 μl of the 10-times concentrated inhibitor are added to 5 μl of enzyme (75 ng final concentration), and 5 μl of peptide (1 μM final concentration), then 2.5 μl of incubation buffer containing 40 μM ATP and 2.5 μl of radiolabeled ATP, [^33P]ATP (500 nCi), are added. After incubation for 15 minutes at ambient temperature, 10 μl of incubation buffer containing 192 nM of substrate. […] Reference method for broth dilution antifungal susceptibility testing of yeasts. Approved Standard M27-A. NCCLS, Villanova, Pa.); the minimum concentration with which a visible decrease is observed in the cloudiness of the cell growth (at least 80% compared to a control without product) is the Minimum Inhibitory Concentration (MIC) of the antifungal agent with respect to the strain tested.
(§2) RPMI 1640 medium (liquid) without L-glutamine is supplemented with L-glutamine (0.3 g/l or 10.5 ml of a solution at 200 mM) and buffered with 34.54 g/l (0.165 M) of morpholinepropanesulfonic acid (MOPS). The medium is sterilized by filtration. 100 μl of RPMI medium are distributed into each well of a 96-well plate. The appropriate volume. of the antifungal solution is distributed in the first column of the microplate and supplemented with 200 μl of medium. Doubling dilutions are made so as to establish a range of 11 concentrations in each line of the microplate. The 12th well of each row will serve as a growth control. The cell suspension is prepared from a culture (liquid or agar) or from a frozen vial, and is diluted in RPMI medium so as to obtain a cell suspension at 5×10^3−2×10^4 cells/ml. 100 μl of the cell suspension are distributed in the microplate. For all species of Candida, the MIC is read after 24-48 h, and for Cryptococcus and Aspergillus after 48-72 h, of incubation at 37° C. in a normal atmosphere. The MIC is read by visual reading, determining the well which contains the lowest dose of antifungal agent which causes at least 80% inhibition of the growth of the fungus.

The subject of another test is Candida albicans. The test is described as above. The class given is cell-based. As to conditions: at least 80% inhibition of growth, read after 24-48 h at 37° C., RPMI 1640, read-out: MIC Candida albicans. The procedure: as §1, §2
The subject of the next test is Abl kinase. The experiment in a line: Assay for inhibition of Abl activity. It is filed as biochemical. As to conditions: fluorescence polarization. The procedure: The inhibition of the kinase activity is determined by fluorescence polarization, the Abl kinase phosphorylates a peptide detected by adding an anti-phosphopeptide antibody coupled to a fluorescent label.
The assay is carried out in a final volume of 50 μl; all the reagents are prepared in a buffer: • 20 mM Hepes/NaOH pH 7.5 • 5 mM MgCl2 • 100 μM Na2VO4 • 1 mM DTT • 100 μM EDTA/NaOH • 0.01% Brij35 5 μl of the 10-times concentrated inhibitor are added to 25 μl of enzyme (1000 U/ml final concentration), (Calbiochem ref 102555). After incubation for 5 minutes at ambient temperature, 10 μL of PolyGT (400 ng/ml final concentration) and 10 μL of ATP (5 μM final concentration) are added. The detection is carried out after incubation for 15 minutes at 30° C. • Results obtained expressed as percentage inhibition at 20 μM • Example 24 100% • Example 2 100% • Example 32 100% 6) Assay for Inhibition of ZAP Kinase Activity

The mark [2] stands for this setting: CaCiv1 with Cdk2 substrate, [33P]ATP, 30 min ambient temperature, read-out: IC50 as micromolar.

pIC50: −log10 of the molar value. ≈ marks a conversion by molar mass, not a printed value. Where a name gives a salt, the structure may show the parent alone. Read-outs that look alike come from different tables or passages of the source.

Sequence of JNK3 kinase (P53779 whole entry): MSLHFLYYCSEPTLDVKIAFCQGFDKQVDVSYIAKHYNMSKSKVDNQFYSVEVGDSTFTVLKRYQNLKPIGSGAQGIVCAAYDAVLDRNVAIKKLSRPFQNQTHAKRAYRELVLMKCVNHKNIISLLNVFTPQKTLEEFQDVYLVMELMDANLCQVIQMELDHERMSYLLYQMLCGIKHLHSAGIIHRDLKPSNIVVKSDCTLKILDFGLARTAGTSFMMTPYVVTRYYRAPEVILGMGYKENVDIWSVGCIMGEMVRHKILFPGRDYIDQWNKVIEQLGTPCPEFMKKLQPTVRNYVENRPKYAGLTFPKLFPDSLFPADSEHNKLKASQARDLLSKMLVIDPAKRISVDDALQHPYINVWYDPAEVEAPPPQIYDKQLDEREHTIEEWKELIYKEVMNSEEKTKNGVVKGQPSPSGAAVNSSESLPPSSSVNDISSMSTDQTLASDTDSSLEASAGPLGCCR
Sequence of CaCiv1 (A0A1D8PH53 entry or part of it): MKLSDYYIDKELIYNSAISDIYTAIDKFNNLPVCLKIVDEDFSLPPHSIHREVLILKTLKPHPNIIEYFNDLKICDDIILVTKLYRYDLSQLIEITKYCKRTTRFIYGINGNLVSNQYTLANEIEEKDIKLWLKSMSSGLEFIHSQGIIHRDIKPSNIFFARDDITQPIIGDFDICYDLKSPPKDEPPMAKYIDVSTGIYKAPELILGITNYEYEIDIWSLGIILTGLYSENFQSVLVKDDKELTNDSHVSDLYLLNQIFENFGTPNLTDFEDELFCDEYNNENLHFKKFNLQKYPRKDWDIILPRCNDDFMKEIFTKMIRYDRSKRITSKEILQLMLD
T1 sequence (P12931 whole entry): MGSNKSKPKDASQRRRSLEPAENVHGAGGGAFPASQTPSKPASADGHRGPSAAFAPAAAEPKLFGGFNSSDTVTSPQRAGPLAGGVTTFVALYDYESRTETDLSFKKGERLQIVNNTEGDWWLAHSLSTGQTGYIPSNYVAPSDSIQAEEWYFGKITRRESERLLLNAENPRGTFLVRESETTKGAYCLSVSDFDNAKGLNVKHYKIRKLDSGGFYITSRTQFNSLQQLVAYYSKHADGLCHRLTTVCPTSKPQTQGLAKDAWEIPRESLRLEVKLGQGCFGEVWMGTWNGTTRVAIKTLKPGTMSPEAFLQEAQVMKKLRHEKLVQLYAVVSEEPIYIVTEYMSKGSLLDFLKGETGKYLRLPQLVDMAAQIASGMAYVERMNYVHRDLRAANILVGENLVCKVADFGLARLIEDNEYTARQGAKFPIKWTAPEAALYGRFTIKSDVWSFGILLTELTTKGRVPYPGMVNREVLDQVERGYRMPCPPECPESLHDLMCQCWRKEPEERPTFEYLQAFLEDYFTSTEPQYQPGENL

In the case of `CC[C@@H](CO)Nc1nc(-n2cnc3ccccc32)c2nc[nH]c2n1` [Example 27, (2S)-2-[[6-(1H-benzimidazol-1-yl)-9H-purin-2-yl]amino]-1-butanol], the inhibition (as a rule, the relative decrease from the control value, in per cent) at 20 µM came out at 97% in test [1] and 95% at SRC kinase. For the same compound, the figures for the pIC50 on CaCiv1 (setting [2]) and at JNK3 kinase were 5.37 and 6.54, respectively.
Turning to `CN(C)c1ccc(NC(=O)Nc2ccc3c(c2)CCN3c2nc(N[C@H]3CC[C@H](N)CC3)nc3[nH]cnc23)cc1` [Example 45, Trans-N-[1-[2-[(4-aminocyclohexyl)amino]-9H-purin-6-yl]-2,3-dihydro-1H-indol-5-yl]-N′-[4-(dimethylamino)phenyl]urea], the pIC50 on CaCiv1 (setting [2]) was 5.89.
On the same count and under the same terms, in the case of `Nc1ccc2c(c1)CCN2c1nc(N[C@H]2CC[C@H](N)CC2)nc2[nH]cnc12` [Example 46, Trans-N-[6-(5-amino-2,3-dihydro-1H-indol-1-yl)-9H-purin-2-yl]-1,4-cyclohexanediamine] it was 5.70; in that of `N[C@H]1CC[C@H](Nc2nc(N3CCc4ccc(C(F)(F)F)cc43)c3nc[nH]c3n2)CC1` [Example 40, Trans-N-[6-[2,3-dihydro-6-(trifluoro-methyl)-1H-indol-1-yl)-9H-purin-2-yl]-1,4-cyclohexanediamine], 6.70; in that of `N[C@H]1CC[C@H](Nc2nc(N3CCc4cc(NC(=O)CCc5ccccc5)ccc43)c3nc[nH]c3n2)CC1` [Example 42, Trans-N-[1-[2-[(4-aminocyclohexyl)amino]-9H-purin-6-yl]-2,3-dihydro-1H-indol-5-yl]benzenepropanamide], 5.48.
For the compound `N[C@H]1CC[C@H](Nc2nc(-n3ccc4ccccc43)c3nc[nH]c3n2)CC1` [Example 16, Trans-N-[6-(1H-indol-1-yl)-9H-purin-2-yl]-1,4-cyclohexanediamine dihydrochloride], the pIC50 against CaCiv1 was 6.51.
Consider `N[C@H]1CC[C@H](Nc2nc(N3CCc4cc(Cl)ccc43)c3nc[nH]c3n2)CC1` [Example 7, Trans-N-[6-(5-chloro-2,3-dihydro-1H-indol-1-yl)-9H-purin-2-yl]-1,4-cyclohexanediamine], for which the pIC50 on CaCiv1 (setting [2]) is 5.44.
Turning to `CC(=O)c1ccc2c(c1)CCN2c1nc(N[C@H]2CC[C@H](N)CC2)nc2[nH]cnc12` [Example 39, Trans-1-[1-[2-[(4-aminocyclohexyl)amino]-9H-purin-6-yl]-2,3-dihydro-1H-indol-5-yl]ethanone], the pIC50 at CaCiv1 (setting [2]) was 5.44.
As to `COc1ccc2c(c1)ncn2-c1nc(N[C@H]2CC[C@H](N)CC2)nc2[nH]cnc12` [Example 15, Trans-N-[6-(5-methoxy-1H-benzimidazol-1-yl)-9H-purin-2-yl]-1,4-cyclohexanediamine dihydrochloride], the pIC50 is 6.52 against CaCiv1 and 6.30 at JNK3 kinase. The inhibition at 20 µM at SRC kinase came to 99%.
As to `N[C@H]1CC[C@H](Nc2nc(N3CCc4cc(NC(=O)Nc5ccc(Cl)c(Cl)c5)ccc43)c3nc[nH]c3n2)CC1` [Example 43, Trans-N-[1-[2-[(4-aminocyclohexyl)amino]-9H-purin-6-yl]-2,3-dihydro-1H-indol-5-yl]-N′-(3,4-dichlorophenyl)urea], at CaCiv1 (setting [2]), the pIC50 was 5.36.
For `N[C@H]1CC[C@H](Nc2nc(N3CCc4cc(NC(=O)Cc5cccs5)ccc43)c3nc[nH]c3n2)CC1` [Example 41, Trans-N-[1-[2-[(4-aminocyclohexyl)amino]-9H-purin-6-yl]-2,3-dihydro-1H-indol-5-yl]-2-thiopheneacetamide], the pIC50 at CaCiv1 (setting [2]) was 6.02.
For the compound `N[C@H]1CC[C@H](Nc2nc(N3CCc4ccc([N+](=O)[O-])cc43)c3nc[nH]c3n2)CC1` [Example 44, Trans-N-[6-(6-nitro-2,3-dihydro-1H-indol-1-yl)-9H-purin-2-yl]-1,4-cyclohexanediamine], on CaCiv1 (setting [2]), the pIC50 is 7.70.
Consider `Cc1cc2ncn(-c3nc(N[C@H]4CC[C@H](N)CC4)nc4[nH]cnc34)c2cc1C` [Example 5, Trans-N-[6-(5,6-dimethyl-1H-benzimidazol-1-yl)-9H-purin-2-yl]-1,4-cyclohexanediamine], for which, at CaCiv1 (setting [2]), the pIC50 is 5.96. In addition, the MIC in the test on Candida glabrata and with Candida albicans was 64 µg/mL (≈ 170 µM) throughout.
On to `N[C@H]1CC[C@H](Nc2nc(N3CCc4cc(Br)ccc43)c3nc[nH]c3n2)CC1` [Example 32, Trans-N-[6-(5-bromo-2,3-dihydro-1H-indol-1-yl)-9H-purin-2-yl]-1,4-cyclohexanediamine], for which the “percentage inhibition at 20 μM” value in the test with Abl kinase is 100%. The inhibition at 20 µM on SRC kinase is 100%. For the same compound, the minimum inhibitory concentration (MIC) with Candida glabrata and in the test with Candida albicans was 64 µg/mL (≈ 149 µM) throughout.
Regarding `N[C@H]1CC[C@H](Nc2nc(N3CCc4cc(F)ccc43)c3nc[nH]c3n2)CC1` [Example 38, Trans-N-[6-(5-fluoro-2,3-dihydro-1H-indol-1-yl)-9H-purin-2-yl]-1,4-cyclohexanediamine dihydrochloride], the inhibition at 20 µM at SRC kinase came out at 95%. Also, at JNK3 kinase, the pIC50 is 6.38.

(Values after patent US7476670B2, “Purine derivatives, method for preparing, pharmaceutical compositions and novel use” (Aventis Pharma S.A., priority 2003, dated 2009).)
